Data as given in patent US20240189297A1 (priority 2021, published 2024).
Where two headings read alike, the source gives them in different places.

Assays:
[1] = free base (non-protonated) nicotine; cited from earlier work

CN1CCCC1c1cccnc1 (stereo not drawn) [nicotine, 3-(1-methyl-2-pyrrolidinyl) pyridine]
partition coefficient (oil phase : aqueous phase) (Samples 1-4: MCT oil vs DI water, basified DI water pH 7.4, artificial saliva pH 6.8, acidified DI water pH 2): greater than 1
partition coefficient (oil phase : aqueous phase) (Samples 5-8: MCT, triacetin or triolein oil vs 1M acetic acid pH adjuster, pH 2): less than 1
pKa value [1]: about 8
